Experimental findings from patent US12268901B2, “Targeting cell tropism receptors to inhibit cytomegalovirus infection” (priority 2017, dated 2025) are described below.

The subject of assay [1] is TB40E-GFP virus binding to ARPE19 cells. In words: Peptide blocking assay, cell-binding virus assay (viral DNA by qPCR). Type of assay: cell-based, Human cytomegalovirus (HCMV). Conditions: different amounts of Peptide 1 preincubated with virus at 37° C. for 2 h, applied to ARPE19 cells at 4° C. for 2 h. The procedure: The shPDGFRA, shOR14I1 and shDMBT1 transduced ARPE19 cells were chilled on ice for 20 min and then incubated with chilled TB40E-GFP at the indicated MOT on ice for 1 h. The cells were then washed ten times with cold PBS. Cellular DNA and cell-associated viral DNA were isolated using a DNeasy Blood & Tissue Kit (Qiagen). Viral DNA (UL83) and host DNA ((β-ACTIN) was quantified by real-time quantitative PCR as described (E et al., J Virol 88, 2279-2290 (2014)).
DNA was isolated from infected ARPE cells using the Dneasy Blood and Tissue DNA mini kit (Qiagen) according to the manufacturer's instructions. Viral genomes were quantified with a primer pair (pp549s and pp812as) and a probe (pp770s) for UL83 (3), and the number of viral genomes normalized to the number of cellular copies of β-ACTIN with a previously described set of primers and probe (4). Unknown sample values were determined on the basis of a standard curve of known copy numbers of UL83 (AD169-BAC) and β-ACTIN (pAB1-bactin-PCRscript) (kind gifts from Donald Coen, Harvard Medical School). […] Real-time PCR was performed and analyzed by using a ViiA7 Real-Time PCR System (Applied Biosystems). […]
Viral binding to ARPE19 cells was evaluated in the presence of Sf9-OR14I1 membrane particles. […] After washing with cold PBS, viral DNA levels were quantified by qPCR. […] After cold PBS washing, viral DNA levels were quantified by qPCR. […]

For assay [2], the system named is Akt phosphorylation in ARPE19 cells. In words: PI3/Akt signaling induced by virus binding (immunoblot phospho Akt ser473). Type of assay: cell-based. Conditions: Peptide 1 100 ug/ml preincubated with virus at 37° C. for 2 h, ARPE19, 30 minutes post infection. As for the experimental part:
FIGS. 8A-C. […] (A) Cells were serum starved at 37° C. for overnight and cells were pretreated with DMSO (control), LY294002 (50 uM) in serum-free medium prior to infection for two hours. Plated cells were cooled on ice for 30 mins. Cells were infected by purified TB40E-GFP virus (no serum) at MOI of 2.0 PFU per cell for 2 hours on ice. Cell plates were then shifted to 37° C. incubator (time 0). Cells were harvested at 0, 5, 10 mins post infection. Protein extracts were subjected to immunoblotting with anti-phospho Akt (ser473), Akt or anti-β-actin (loading control). (B) ARPE19 epithelial sgCon and sgOR14I1 knock out cells were serum starved at 37° C. for overnight. Plated cells were cooled on ice for 30 mins. Cells were infected by purified TB40E-GFP virus (no serum) at MOI of 2.0 PFU per cell for 2 hours on ice. Cell plates were then shifted to 37° C. incubator (time 0). Cell were harvested at 0, 5 mins post infection. (C) Peptide 1 (100 ug/ml) was preincubated with TB40E-GFP virus at 37° C. for 2 h and the mixture applied to ARPE19 cells. The phosphorylation of Akt and total Akt were detected 30 minutes post infection of TB40E-GFP.
Cells were serum starved at 37° C. for overnight and cells were pretreated with DMSO (DMSO-carrier control) or LY294002 (50 uM) in serum-free medium prior to infection for two hours. Cell plates were cooled on ice for 30 mins. […]

For “MDNLTKVTEFLLMEFSGIWELQVLHA (N-terminal fragment of OR14I1) [Peptide 1, synthetic peptide representing the N-terminus of OR14I1, position 1-26]”, the “TB40E-GFP virus binding to ARPE19 cells (viral DNA by qPCR)” value in assay [1] is given as “sufficient to prevent for TB40E-GFP virus binding ARPE19 cells”. In addition, the “Akt phosphorylation induced by HCMV infection” value in assay [2] is reported as “abolished”.
